# Measured values from patent US9738655B2, “Tetrahydroisoquinolines containing substituted azoles as factor XIa inhibitors” (BRISTOL-MYERS SQUIBB COMPANY, priority 2013, dated 2017).
# Structures can show the parent of a compound that is named as a salt. Where two headings read alike, the source gives them in different places.
# What was measured:
# [1] = biological target: purified human plasma kallikrein (Homo sapiens (Human), UniProt P03952); test: Plasma kallikrein enzyme inhibition assay (chromogenic substrate S-2302); assay type: biochemical
# Sequence of purified human plasma kallikrein (P03952 391-638): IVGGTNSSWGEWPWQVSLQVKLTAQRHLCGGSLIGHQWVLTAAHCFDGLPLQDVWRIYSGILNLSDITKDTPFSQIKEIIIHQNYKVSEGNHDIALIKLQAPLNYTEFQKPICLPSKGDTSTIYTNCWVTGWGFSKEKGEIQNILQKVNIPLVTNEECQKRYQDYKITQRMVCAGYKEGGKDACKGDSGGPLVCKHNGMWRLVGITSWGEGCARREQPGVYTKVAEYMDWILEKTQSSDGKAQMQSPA
# Sequence of purified human plasma kallikrein (P03952 20-390 partner): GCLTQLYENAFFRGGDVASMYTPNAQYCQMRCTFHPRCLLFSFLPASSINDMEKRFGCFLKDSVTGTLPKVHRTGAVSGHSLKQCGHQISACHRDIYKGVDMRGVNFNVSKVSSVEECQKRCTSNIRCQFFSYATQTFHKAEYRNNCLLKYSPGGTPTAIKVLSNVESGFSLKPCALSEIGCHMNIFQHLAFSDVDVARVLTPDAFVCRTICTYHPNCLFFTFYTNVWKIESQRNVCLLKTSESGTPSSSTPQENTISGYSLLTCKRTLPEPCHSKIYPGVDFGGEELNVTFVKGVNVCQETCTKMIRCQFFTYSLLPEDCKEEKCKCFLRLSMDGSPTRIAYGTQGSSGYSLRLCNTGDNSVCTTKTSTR
# [2] = biological target: purified human Factor XIa (Homo sapiens (Human), UniProt P03951); test: Factor XIa enzyme inhibition assay (chromogenic substrate S-2366)
# Sequence of purified human Factor XIa (P03951 388-625): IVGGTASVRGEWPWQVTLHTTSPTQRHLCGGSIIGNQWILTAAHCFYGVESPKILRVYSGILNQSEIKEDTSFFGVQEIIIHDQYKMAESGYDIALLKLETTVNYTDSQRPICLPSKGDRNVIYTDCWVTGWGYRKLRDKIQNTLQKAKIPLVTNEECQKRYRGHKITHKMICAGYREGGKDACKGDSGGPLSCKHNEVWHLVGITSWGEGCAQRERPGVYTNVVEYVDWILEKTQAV
# Sequence of purified human Factor XIa (P03951 19-387 partner): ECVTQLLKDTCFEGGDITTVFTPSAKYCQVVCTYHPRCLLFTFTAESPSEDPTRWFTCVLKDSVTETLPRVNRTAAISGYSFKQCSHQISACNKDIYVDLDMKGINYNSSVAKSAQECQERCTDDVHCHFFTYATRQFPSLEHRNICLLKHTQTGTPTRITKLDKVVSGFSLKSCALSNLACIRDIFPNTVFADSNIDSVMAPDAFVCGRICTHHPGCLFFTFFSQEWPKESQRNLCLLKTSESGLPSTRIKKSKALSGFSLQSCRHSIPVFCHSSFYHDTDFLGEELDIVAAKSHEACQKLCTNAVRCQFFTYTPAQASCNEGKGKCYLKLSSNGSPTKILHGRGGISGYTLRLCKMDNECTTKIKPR
# [3] = measured at 25° C. (no asterisk)
# [4] = read-out: Factor XIa Ki, measured at 25° C.
Structure (SMILES),"Ki [1, 3]","Ki [2, 4]",also measured
"CN(C)C(=O)C1CCN(c2cccc3c2CCN(C(=O)c2cnn(-c4cccc(Cl)c4F)c2)[C@H]3C(=O)Nc2ccc(C(=O)O)cc2)CC1 (single isomer, unassigned) [Example 60, TFA salt]",698 nM,47.8 nM,–
"Cn1ncc2cc(-c3cccc4c3CCN(C(=O)c3cn(-c5cccc(Cl)c5F)nn3)C4C(=O)Nc3ccc(C(=O)O)cc3)ccc21 (stereo not shown) [Example 156, 4-(2-(1-(3-chloro-2-fluorophenyl)-1H-1,2,3-triazole-4-carbonyl)-5-(1-methyl-1H-indazol-5-yl)-1,2,3,4-tetrahydroisoquinoline-1-carboxamido)benzoic acid]",30.1 nM,< 5 nM,–
"O=C(Nc1ccc(-c2ncc[nH]2)cc1)C1c2cccc(-c3cncnc3)c2CCN1C(=O)c1cn(-c2cccc(Cl)c2F)nn1 (stereo not shown) [Example 126, N-(4-(1H-imidazol-2-yl)phenyl)-2-(1-(3-chloro-2-fluorophenyl)-1H-1,2,3-triazole-4-carbonyl)-5-(pyrimidin-5-yl)-1,2,3,4-tetrahy-droisoquinoline-1-carboxamide, TFA salt]",–,< 5 nM,Ki ([1]; measured at 37° C. (*)): 94 nM
"CN1CCN(c2cccc3c2CCN(C(=O)c2cn(-c4cccc(Cl)c4)nn2)C3C(=O)Nc2ccc(C(=O)O)cc2)CC1 (stereo not shown) [Example 201, 4-(2-(1-(3-chlorophenyl)-1H-1,2,3-triazole-4-carbonyl)-5-(4-methylpiperazin-1-yl)-1,2,3,4-tetrahydroisoquinoline-1-carboxamido)benzoic acid, 2 TFA salt]",4.21 nM,9.88 nM,–
"C=C(C)c1cccc2c1CCN(C(=O)c1cn(-c3cccc(Cl)c3F)nn1)C2C(=O)Nc1ccc(C(=O)O)cc1 (stereo not shown) [Example 333, 4-(2-(1-(3-Chloro-2-fluorophenyl)-1H-1,2,3-triazole-4-carbonyl)-5-(prop-1-en-2-yl)-1,2,3,4-tetrahydroisoquinoline-1-carboxamido)benzoic acid]",61.3 nM,18.2 nM,–
"NS(=O)(=O)c1cccc(-c2cccc3c2CCN(C(=O)c2cn(-c4cccc(Cl)c4F)nn2)C3C(=O)Nc2ccc(C(=O)O)cc2)c1 (stereo not shown) [Example 155, 4-(2-(1-(3-chloro-2-fluorophenyl)-1H-1,2,3-triazole-4-carbonyl)-5-(3-sulfamoylphenyl)-1,2,3,4-tetrahydroisoquinoline-1-carboxamido)benzoic acid]",23.9 nM,< 5 nM,–
"CN(C)C1CCN(c2cccc3c2CCN(C(=O)c2cnn(-c4cccc(Cl)c4F)c2)C3C(=O)Nc2ccc(OC(F)F)cc2)CC1 (stereo not shown) [Example 96, 2-(1-(3-chloro-2-fluorophenyl)-1H-pyrazole-4-carbonyl)-N-(4-(difluoromethoxy)phenyl)-5-(4-(dimethylamino)piperidin-1-yl)-1,2,3,4-tetrahydroisoquinoline-1-carboxamide, TFA salt]",34 nM,20.3 nM,–
"N#Cc1ccc(-c2cccc3c2CCN(C(=O)c2cn(-c4cccc(Cl)c4F)nn2)[C@H]3C(=O)Nc2ccc(C(=O)O)cc2)cn1 [Example 15, (R)-4-(2-(1-(3-Chloro-2-fluorophenyl)-1H-1,2,3-triazole-4-carbonyl)-5-(6-cyanopyridin-3-yl)-1,2,3,4-tetrahydroisoquinoline-1-carboxamido)benzoic acid, TFA salt]",219 nM,9.12 nM,–
"COC1CCN(c2cccc3c2CCN(C(=O)C2(C)CC(c4cccc(Cl)c4F)=NO2)C3C(=O)Nc2ccc(C(=O)O)cc2)CC1 (stereo not shown) [Example 266, 4-(2-(3-(3-chloro-2-fluorophenyl)-5-methyl-4,5-dihydroisoxazole-5-carbonyl)-5-(4-methoxypiperidin-1-yl)-1,2,3,4-tetrahydroisoquinoline-1-carboxamido)benzoic acid, TFA salt]",–,–,"Ki ([1]; measured at 25° C. (no asterisk), TFA salt): 687 nM; Ki ([2]; read-out: Factor XIa Ki, measured at 25° C., TFA salt): 420 nM"
"O=C(O)c1ccc(NC(=O)C2c3cccc(N4CCN(C5COC5)CC4)c3CCN2C(=O)c2cn(-c3cccc(Cl)c3F)nn2)cc1 (stereo not shown) [Example 226, 4-(2-(1-(3-Chloro-2-fluorophenyl)-1H-1,2,3-triazole-4-carbonyl)-5-(4-(oxetan-3-yl)piperazin-1-yl)-1,2,3,4-tetrahydroisoquinoline-1-carboxamido)benzoic acid, TFA salt]",7.65 nM,< 5 nM,–

# Second part, led by results:
"Ki [1, 3]","Ki [2, 4]",Structure (SMILES),also measured
–,27.9 nM,"CC(C)c1nnc2n1CCN(c1cccc3c1CCN(C(=O)[C@H]1CC(c4cccc(Cl)c4F)=NO1)[C@H]3C(=O)Nc1ccc(C(=O)O)cc1)C2 [Example 337, 4-((R)-2-((R)-3-(3-Chloro-2-fluorophenyl)-4,5-dihydroisoxazole-5-carbonyl)-5-(3-isopropyl-5,6-dihydro-[1,2,4]triazolo[4,3-a]pyrazin-7(8H)-yl)-1,2,3,4-tetrahydroisoquinoline-1-carboxamido)benzoic acid, TFA salt]",Ki ([1]; measured at 37° C. (*)): 68.1 nM
–,14.7 nM,"Cc1ncn(-c2cccc3c2CCN(C(=O)[C@H]2CC(c4cccc(Cl)c4F)=NO2)[C@H]3C(=O)Nc2ccc(C(=O)O)cc2)n1 [Example 251, 4-((R)-2-((R)-3-(3-Chloro-2-fluorophenyl)-4,5-dihydroisoxazole-5-carbonyl)-5-(3-methyl-1H-1,2,4-triazol-1-yl)-1,2,3,4-tetrahydroisoquinoline-1-carboxamido)benzoic acid, TFA salt]",Ki ([1]; measured at 37° C. (*)): 601 nM
6.25 nM,–,"CN1CCN(c2cccc3c2CCN(C(=O)c2cn(-c4cccc(Cl)c4F)cn2)C3C(=O)Nc2ccc(C(=O)O)cc2)CC1=O (racemic) [Example 284, 4-(2-(1-(3-chloro-2-fluorophenyl)-1H-imidazole-4-carbonyl)-5-(4-methyl-3-oxopiperazin-1-yl)-1,2,3,4-tetrahydroisoquinoline-1-carboxamido)benzoic acid, TFA salt]",Ki [2]: < 5 nM
30.9 nM,–,"O=C(O)c1ccc(NC(=O)[C@@H]2c3cccc(N4CCC(N5CCCC5=O)CC4)c3CCN2C(=O)[C@H]2CC(c3cccc(Cl)c3F)=NO2)cc1 (single isomer, unassigned) [Example 207, TFA salt]",Ki [2]: < 5 nM
